Measured values reported in patent US20220213070A1, “COMPOUNDS INHIBITING TDG ACTIVITY” (EPITAS BIOSCIENCES (SHANGHAI) CO., LTD., priority 2019, published 2022).
pIC50: −log10 of the molar value.

Columns and labels:
TDG [1] = target: T1, TDG (Homo sapiens, UniProt Q13569); assay: Inhibition of TDG mismatch repair activity (fluorescent G·U double-stranded DNA probe T1-T2); format: biochemical; conditions: TDG 100 nM/L, preincubated with compound 37° C. 30 minutes; probe 30 nM; read-out: Inhibitory activity on TDG mismatch repair IC50
T1 sequence (Q13569 whole entry): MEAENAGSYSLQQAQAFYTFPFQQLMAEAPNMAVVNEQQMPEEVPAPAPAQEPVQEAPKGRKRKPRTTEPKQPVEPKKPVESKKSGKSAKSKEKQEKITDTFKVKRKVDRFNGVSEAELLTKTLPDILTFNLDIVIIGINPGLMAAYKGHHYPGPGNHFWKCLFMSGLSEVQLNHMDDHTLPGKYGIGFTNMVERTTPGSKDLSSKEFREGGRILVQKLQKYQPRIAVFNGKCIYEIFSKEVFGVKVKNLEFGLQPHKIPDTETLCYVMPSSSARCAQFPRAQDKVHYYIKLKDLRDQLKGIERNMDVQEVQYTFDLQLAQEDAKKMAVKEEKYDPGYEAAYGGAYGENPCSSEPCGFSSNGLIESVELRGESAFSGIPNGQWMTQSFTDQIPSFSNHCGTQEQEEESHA
Source text: 14.1 Experimental Determination of Compound's Inhibitory Rate on TDG Mismatch Repair Activity
(1) A double-stranded DNA probe T1-T2 containing uracil bases was synthesized. The nucleotide sequence of the T1 chain was: 5′-FAM-TAAUGTGAATGGAGCTGAAAT-biotin-3′; The nucleotide sequence of the T2 chain was 5′-ATTTCAGCTCCATTCACGTTA-3′. Using PCR annealing program, the T1 strand and T2 strand were complementary to form a double-stranded DNA probe T1-T2.
(2) The reaction system and steps for each well of a 96-well plate were as follows: a. TDG (100 nM/L) was mixed with different concentrations of compounds, and the mixture was incubated at 37° C. for 30 minutes. The composition of the reaction buffer was: 20 mM HEPES pH7.5, 100 mM NaCl, 0.2 mM EDTA, 2.5 mM MgCl2; b. The double-stranded DNA probe T1-T2 was added to the mixture to obtain a final volume of 100 μL, with a concentration of 30 nM, and the mixture was incubated at 25° C. for 30 min; c. 1 μL of streptavidin magnetic beads were added to the reaction solution and fully bound the biotin-labeled DNA for 1 hour; d. NaOH was added to the reaction solution to a final concentration of 200 mM, and the mixture was incubated at room temperature for 30 minutes; e. Under the action of a magnetic stand the streptavidin magnetic beads were adsorbed to the tube wall, the supernatant was transferred to a new 96-well plate, and placed in a Tecan microplate reader for fluorescence measurement. The parameter settings were: excitation wavelength 485 nm; emission wavelength 520 nm. A linear curve between fluorescence intensity and TDG concentration was constructed, R^2=0.9968, and the linear range was 0-50 nM/L;
According to the biological method described in this example, the selected compounds of the present invention were analyzed, and the results are shown in Table 1. Among them, “++” in Table 1 refers to the inhibitory activity for TDG mismatch repair with IC50≤5 μM; “+” refers to the inhibitory activity for TDG mismatch repair with IC50>5 μM.

[2] = system: Lung cancer cell line Calu-1; assay: Inhibition of the growth of Calu-1 cells (CellTiter-Glo, 72 hours); format: cell-based; conditions: Homo sapiens, 72 hours of culturing, read-out: Inhibitory activity on alu-1 cell growth IC50
Description: 14.2 Experimental Determination of Compound's Inhibitory Rate on the Growth of Calu-1 Cells
Lung cancer cell line Calu-1 was cultured in 90% McCoy's 5A medium (BI, 01-075-1ACS)+10% fetal bovine serum (Gibco, 10270106), placed in a CO2 incubator (37° C., 5% CO2, 95% air) for culturing. Calu-1 cells were digested with trypsin (Gibco, 12604-021) and seeded in a 384-well plate at a density of 500 cells per well. The medium was 50 μL and it was cultured overnight at 37° C. in an incubator. On the next day, different concentrations of test compounds were added, and the final concentration of DMSO was 0.1%. After 72 hours of culturing, the cells were taken out for test. The cell culture medium from the 384-well plate to be tested was removed, and fresh culture medium premixed with CTG was immediately added: the ratio of the culture medium to CellTiter-Glo® 2.0 reagent (Promega, G9243) was 2:1, 30 ul was added to each well. The plate was shaken at room temperature for 20 minutes, and then a multi-function plate reader (TECAN, Infinite 200 Pro) was used according to the reagent instructions to determine the cell survival.
According to the biological method described in this example, the selected compounds of the present invention were analyzed, and the results are shown in Table 1. Among them, “++” in Table 1 refers to the inhibitory activity on the growth of calu-1 cells with IC50≤5 μM; “+” refers to the inhibitory activity on the growth of calu-1 cells with IC50>5 μM.

TDG [3] = target: T1, TDG; assay: TDG inhibitory activity of compounds in cells (caC-cmv-firefly luciferase reporter, HEK 293T TDG KO cells transfected with pCDNA4-TDG); format: cell-based; conditions: read-out: Inhibition rate on TDG activity
Description: Experimental Determination of TDG Inhibitory Activity of Compounds in Cells
The operation steps of this example are as follows:
(1) Preparation of Methylation Reporter Plasmid:
(a) SAM with a stock solution concentration of 32 mM was diluted with ultrapure water to 1600 μM;
(b) The reaction system was prepared according to the following ratio: 30 μl ultrapure water, 5 μl 10×NEBuffer 2, 5 μl diluted SAM, 1 μg pCpGL-CMV-firefly plasmid, 1 μl SssI methylase (4 U/μl); 50 μl in total, the reaction was carried out at 37° C. for 2 hours;
(c) The mixture was heated at 65° C. for 20 minutes. Then 0.2% SDS was added, the reaction was carried out at 80° C. for 10 min; and then 1 μl Proteinase K was added, the reaction was carried out at 50° C. for 1 h;
(d) The methylated plasmid was recovered with Dr. GenTLE® sedimentation aid (TAKARA).
(2) Preparation of 5fC/5caC pCpGL-CMV-Firefly Reporter Plasmid
(a) The following 10× reaction system was prepared:
(b) The reaction system was prepared according to the following ratio:
(c) The reaction was carried out at 37° C. for one hour;
(d) 24 μg Tet1 protein was added for the second time and the reaction was continued for one hour;
(e) SDS was added to a final concentration of 0.5%, 80° C., 10 minutes, then 1 μl Proteinase K was added, 55° C. overnight.
(f) The treated caC-cmv-firefly plasmid was recovered with Dr. GenTLE® sedimentation aid (TAKARA) and was quantified.
(3) Using the Luciferase Activity Assay Method to Detect the Inhibitory Rate of Small Molecule Compounds on Intracellular TDG Enzyme Activity
In a 96-well plate, the reaction system and operation flow of each well were as follows:
(a) 1 ng caC-cmv-firefly, Ing pCpGL-CMV-Relina and 150 ng pCDNA4-TDG or 150 ng pCDNA4-myc plasmid, were diluted to 75 ul Opti-MEM, mixed well and allowed to stand still for 5 minutes;
(b) 2 ul transfection reagent (Hieff Trans™ Liposomal transfection Reagent (0.5 ul/well, YEAEEN, Cat #40802)) was diluted in 100 ul Opti-MEM, mixed well and allowed to stand still for 5 minutes;
(c) 75 ul of (a) and (b) were mixed respectively, and allowed to stand still at room temperature for 20 minutes;
(d) HEK 293T TDG KO cells were digested with trypsin, the cells were collected and counted, and the suspension cell concentration was adjusted to 4×10^5/ml;
(e) 50 ul of the mixture (c) was added to each well, and at the same time 100 ul of the diluted cell suspension was added to the same well, and they were mixed well.
(f) After the cells adhering to the wall, different concentrations of small molecule compounds to be tested were added to each well.
(g) Incubation was performed in a 37° C. CO2 incubator for 72 hours. The supernatant was removed and the cells were quickly freezed at −80° C.
(h) Before detecting the luciferase activity, the cells to be tested were removed from −80° C. and allowed to stand still at room temperature for 30 minutes. Following the instructions of Dual-Glo® Luciferase Reagent (PROMEGA), the firefly fluorescence value and Renilla fluorescence value of each well were detected.
(i) The firefly fluorescence value was divided with the Renilla fluorescence value of each well; 96-well plate Z′ and experimental window was calculated by the ratio of transfected caC-cmv-firefly, pCpGL-CMV-Relina, pCDNA4-TDG plasmid mixture plus DMSO experimental group to transfected caC-cmv-firefly, pCpGL-CMV-Relina, pCDNA4-myc plasmid mixture plus DMSO experimental group, and the relative enzyme activity inhibition rate of each compound was calculated.
According to the biological method described in this example, the selected compounds of the present invention were analyzed, and the results are shown in Table 2. Among them, “+” in Table 2 refers to the compound's TDG inhibitory activity at a concentration of 10 μM≤25%; “++” refers to the compound's TDG inhibitory activity at a concentration of 10 μM>25%.

Work on `O=C(CCN1Cc2ccccc2C1)c1ccc2c(c1)C(=O)CCO2` [Compound 36, 6-(3-(isoindolin-2-yl)propionyl)chroman-4-one] yielded a pIC50 (TDG [1]) of no less than 5.30, a pIC50 [2] of no less than 5.30 and an inhibition at 10 µM (TDG [3]) of less than 25%.
Work on `O=C(CCN1Cc2ccccc2C1)c1ccc2c(c1)SCCO2` [Compound 37, 1-(2,3-dihydrobenzo[b][1,4]oxathion-6-yl)-3-(isoindolin-2-yl)propan-1-one] yielded a pIC50 (TDG [1]) of less than 5.30, a pIC50 [2] of less than 5.30 and an inhibition at 10 µM (TDG [3]) of less than 25%.
`O=C(CCN1CCc2ccccc2C(O)(c2ccc(F)cc2)C1)c1ccc2c(c1)OCCO2` (centres unmarked) [Compound 53, 1-(2,3-dihydrobenzo[b][1,4]dioxin-6-yl)-3-(1-(4-fluorophenyl)-1-hydroxy-1,2,4,5-tetrahydro-3H-benzo[d]azepine-3-yl)propan-1-one] was tested, and the pIC50 (TDG [1]) was no less than 5.30, the pIC50 [2] was no less than 5.30 and the inhibition at 10 µM (TDG [3]) was less than 25%.
With `O=C(CCNC1=NCc2ccccc21)c1ccc2c(c1)OCCO2` [Compound 26, 3-((1H-isoindo1-3-yl)amino)-1-(2,3-dihydrobenzo[b][1,4]dioxin-6-yl)propan-1-one] the pIC50 (TDG [1]) was less than 5.30, the pIC50 [2] was less than 5.30 and the inhibition at 10 µM (TDG [3]) was less than 25%.
For `O=C(CCN1CCN(c2ncccn2)CC1)c1ccc2c(c1)OCCO2` [Compound 19, 1-(2,3-dihydrobenzo[b][1,4]dioxin-6-yl)-3-(4-(pyrimidin-2-yl)piperazin-1-yl)propan-1-one], the pIC50 (TDG [1]) was less than 5.30, the pIC50 [2] was no less than 5.30 and the inhibition at 10 µM (TDG [3]) was less than 25%.
`O=C(CCn1ncc2ccncc21)c1ccc2c(c1)OCCO2` [Compound 25, 1-(2,3-dihydrobenzo[b][1,4]dioxin-6-yl)-3-(1H-pyrazolo[3,4-c]pyridine-1-yl)propan-1-one] gave a pIC50 (TDG [1]) of less than 5.30, a pIC50 [2] of less than 5.30 and an inhibition at 10 µM (TDG [3]) of less than 25%.
With `O=C(CCN1CCC(c2ccc([N+](=O)[O-])cc2)C1)c1ccc2c(c1)OCCO2` (centres unmarked) [Compound 46, 1-(2,3-dihydrobenzo[b][1,4]dioxin-6-yl)-3-(3-(4-nitrophenyl)pyrrolidin-1-yl)propan-1-one] the pIC50 (TDG [1]) was no less than 5.30, the pIC50 [2] was no less than 5.30 and the inhibition at 10 µM (TDG [3]) was less than 25%.
With `CC(C)(C)OC(=O)NCC1(O)CN(CCC(=O)c2ccc3c(c2)OCCO3)C1` [Compound 23, tert-butyl ((1-(3-(2,3-dihydrobenzo[b][1,4]dioxin-6-yl)-3-oxopropyl)-3-hydroxyazetidin-3-yl)methyl)carbamate] the pIC50 (TDG [1]) was less than 5.30, the pIC50 [2] was less than 5.30 and the inhibition at 10 µM (TDG [3]) was less than 25%.
For `COc1ccc2cn(CCC(=O)c3ccc4c(c3)OCCO4)nc2c1` [Compound 24, 1-(2,3-dihydrobenzo[b][1,4]dioxin-6-yl)-3-(6-methoxy-2H-indazol-2-yl)propan-1-one], the pIC50 (TDG [1]) was less than 5.30, the pIC50 [2] was less than 5.30 and the inhibition at 10 µM (TDG [3]) was less than 25%.
Molecule `O=C(CN1Cc2ccccc2C1)c1ccc2c(c1)OCCO2` [Compound 32, 1-(2,3-dihydrobenzo[b][1,4]dioxin-6-yl)-2-(isoindolin-2-yl)ethan-1-one] has a pIC50 (TDG [1]) of less than 5.30, a pIC50 [2] of less than 5.30 and an inhibition at 10 µM (TDG [3]) of less than 25%.
`O=C(CCN1CCC(O)(c2ccccc2)C1)c1ccc2c(c1)OCCO2` (centres unmarked) [Compound 44, 1-(2,3-dihydrobenzo[b][1,4]dioxin-6-yl)-3-(3-hydroxy-3-phenylpyrrolidin-1-yl)propan-1-one] gave a pIC50 (TDG [1]) of less than 5.30, a pIC50 [2] of no less than 5.30 and an inhibition at 10 µM (TDG [3]) of less than 25%.
Work on `O=C1CCN(CCC(=O)c2ccc3c(c2)OCCO3)C1` [Compound 17, 1-(3-(2,3-dihydrobenzo[b][1,4]dioxin-6-yl)-3-oxopropyl)pyrrolidin-3-one] yielded a pIC50 (TDG [1]) of no less than 5.30, a pIC50 [2] of less than 5.30 and an inhibition at 10 µM (TDG [3]) of less than 25%.
`O=C(CCN1CCC(c2ccc(C(F)(F)F)cc2)C1)c1ccc2c(c1)OCCO2` (centres unmarked) [Compound 45, 1-(2,3-dihydrobenzo[b][1,4]dioxin-6-yl)-3-(3-(4-(trifluoromethyl)phenyl)pyrrolidine-1-yl)propan-1-one] was tested, and the pIC50 (TDG [1]) was less than 5.30, the pIC50 [2] was no less than 5.30 and the inhibition at 10 µM (TDG [3]) was less than 25%.
In the case of `O=C(CCN1CCC(c2ccc(Br)cc2)C1)c1ccc2c(c1)OCCO2` (centres unmarked) [Compound 47, 3-(3-(4-bromophenyl)pyrrolidin-1-yl)-1-(2,3-dihydrobenzo[b][1,4]dioxin-6-yl)propan-1-one], the pIC50 (TDG [1]) was no less than 5.30, the pIC50 [2] was no less than 5.30 and the inhibition at 10 µM (TDG [3]) was less than 25%.
For `O=C(CCN1CCC(c2ccc(Cl)cc2)C1)c1ccc2c(c1)OCCO2` (centres unmarked) [Compound 49, 3-(3-(4-chlorophenyl)pyrrolidin-1-yl)-1-(2,3-dihydrobenzo[b][1,4]dioxin-6-yl)propan-1-one], the pIC50 (TDG [1]) was no less than 5.30, the pIC50 [2] was no less than 5.30 and the inhibition at 10 µM (TDG [3]) was less than 25%.
`Cc1ccc(C2CCN(CCC(=O)c3ccc4c(c3)OCCO4)C2)cc1` (centres unmarked) [Compound 48, 1-(2,3-dihydrobenzo[b][1,4]dioxin-6-yl)-3-(3-(p-tolyl)pyrrolidin-1-yl)propan-1-one] gave a pIC50 (TDG [1]) of no less than 5.30 and a pIC50 [2] of no less than 5.30.
